Assay results reported in patent publication US20040110821A1, “GAL3 receptor antagonists for the treatment of affective disorders” (priority 2002, published 2004).

Assays:
[1] = test system: Male albino Sprague-Dawley rats; experiment: Rat Social Interaction Test (SIT); format: in vivo; conditions: for overall profile in the Social Interaction Test (conclusion in words): rat, in vivo
Protocol: Rats were allowed to acclimate to the animal care facility for 5 days and were housed singly for 5 days prior to testing. Animals were handled for 5 minutes per day. The design and procedure for the Social Interaction Test was carried out as previously described by Kennett, et al. (1997). On the test day, weight matched pairs of rats (±5%), unfamiliar to each other, were given identical treatments and returned to their home cages. Animals were randomly divided into 5 treatment groups, with 5 pairs per group, and were given one of the following i.p. treatments: Example 92 (10, 30 or 100 mg/kg), vehicle (1 ml/kg) or chlordiazepoxide (5 mg/kg). Dosing was 1 hour prior to testing. Rats were subsequently placed in a white perspex test box or arena (54×37×26 cm), whose floor was divided up into 24 equal squares, for 15 minutes. An air conditioner was used to generate background noise and to keep the room at approximately 74° F. All sessions were videotaped using a JVC camcorder (model GR-SZ1, Elmwood Park, N.J.) with either TDK (HG ultimate brand) or Sony 30 minute videocassettes. All sessions were conducted between 1:00-4:30 P.M. Active social interaction, defined as grooming, sniffing, biting, boxing, wrestling, following and crawling over or under, was scored using a stopwatch (Sportsline model no. 226, 1/100 sec. discriminability). The number of episodes of rearing (animal completely raises up its body on its hind limbs), grooming (licking, biting, scratching of body), and face washing (i.e. hands are moved repeatedly over face), and number of squares crossed were scored. Passive social interaction (animals are lying beside or on top of each other) was not scored. All behaviors were assessed later by an observer who was blind as to the treatment of each pair. At the end.of each test, the box was thoroughly wiped with moistened paper towels.
Male albino Sprague-Dawley rats (Taconic Farms, N.Y.) were housed in pairs under a 12 hr light dark cycle (lights on at 0700 hrs.) with free access to food and water.
Example 92 was dissolved in 100% DMSO (Sigma Chemical Co., St. Louis, Mo.). Chlordiazepoxide (purchased from Sigma Chemical Co., St. Louis, Mo.) was dissolved in double distilled water. The vehicle consisted of 50% DMSO (v/v). All drug solutions were made up 10 minutes prior to injection and the solutions were discarded.
Example 34 was dissolved in 5% lactic acid, v/v. The vehicle consisted of 100% dimethylacetamide (DMA) and this was used to make up all drug solutions. All drug solutions were made up fresh each day and any unused solutions were discarded at the end of the test day. The volume of drug solution administered was 1 ml/kg.
The social interaction data (time interacting, rearing and squares crossed) were subjected to a randomized, one-way ANOVA and post hoc tests conducted using the Student-Newman-Keuls test. The data were subjected to a test of normality (Shapiro-Wilk test). The data were analyzed using the GBSTAT program, version 6.5 (Dynamics Microsystems, Inc., Silver Spring, Md., 1997). All data are presented as means ±S.E.M.

[2] = target: T1, human 5HT2A receptor (Homo sapiens, UniProt P28223); experiment: Radioligand binding at human 5HT2A receptor; conditions: read-out: h5HT2A Ki
T1 construct: expressed in transfected cells; host or cells: COS-7 cells, transient, vector pCEXV-3
T1 sequence (P28223 whole entry): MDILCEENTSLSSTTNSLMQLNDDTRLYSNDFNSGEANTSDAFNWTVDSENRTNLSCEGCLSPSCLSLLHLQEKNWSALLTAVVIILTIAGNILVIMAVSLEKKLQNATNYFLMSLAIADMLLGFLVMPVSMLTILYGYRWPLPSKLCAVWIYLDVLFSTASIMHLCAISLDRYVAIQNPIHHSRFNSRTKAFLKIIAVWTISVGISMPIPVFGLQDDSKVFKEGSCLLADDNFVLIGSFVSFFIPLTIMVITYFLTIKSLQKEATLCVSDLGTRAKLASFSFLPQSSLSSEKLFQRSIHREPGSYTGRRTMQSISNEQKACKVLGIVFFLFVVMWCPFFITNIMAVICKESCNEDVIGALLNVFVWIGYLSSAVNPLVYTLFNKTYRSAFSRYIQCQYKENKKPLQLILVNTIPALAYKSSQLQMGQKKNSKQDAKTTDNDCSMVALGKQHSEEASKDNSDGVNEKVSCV
Protocol: Human 5HT2; Receptor: The coding sequence of the human 5HT2A receptor was obtained from a human brain cortex cDNA library, and cloned into the cloning site of pCEXV-3 eukaryotic expression vector. This construct was transfected into COS-7 cells by the DEAE-dextran method (Cullen, 1987). Cells were harvested after 72 hours and lysed by sonication in 5 mM Tris-HCl, 5 mM EDTA, pH 7.5. The cell lysates were subjected to centrifugation at 1000 rpm for 5 minutes at 4° C., and the supernatant was subjected to centrifugation at 30,000×g for 20 minutes at 4° C. The pellet was suspended in 50 mM Tris-HCl buffer (pH 7.7 at room temperature) containing 10 mM MgSO4, 0.5 mM EDTA, and 0.1% ascorbate. The affinity of compounds at 5HT2A receptors were determined in equilibrium competition binding assays using [^3H]ketanserin (1 nM). Nonspecific binding was defined by the addition of 10 μM mianserin. The bound radioligand was separated by filtration through GF/B filters using a cell harvester.
(§1) Binding data were analyzed using nonlinear regression and statistical techniques available in the GraphPAD Prism package (San Diego, Calif.). Enzymatic assay data were derived from a standard curve of reference compound data.

[3] = target: T2, human 5HT1A receptor (Homo sapiens, UniProt P08908); experiment: Radioligand binding at 5-HT1A receptor; conditions: read-out: h5HT1A Ki
T2 construct: expressed in transfected cells; host or cells: COS-7 cells, transient, vector pCEXV-3
T2 sequence (P08908 whole entry): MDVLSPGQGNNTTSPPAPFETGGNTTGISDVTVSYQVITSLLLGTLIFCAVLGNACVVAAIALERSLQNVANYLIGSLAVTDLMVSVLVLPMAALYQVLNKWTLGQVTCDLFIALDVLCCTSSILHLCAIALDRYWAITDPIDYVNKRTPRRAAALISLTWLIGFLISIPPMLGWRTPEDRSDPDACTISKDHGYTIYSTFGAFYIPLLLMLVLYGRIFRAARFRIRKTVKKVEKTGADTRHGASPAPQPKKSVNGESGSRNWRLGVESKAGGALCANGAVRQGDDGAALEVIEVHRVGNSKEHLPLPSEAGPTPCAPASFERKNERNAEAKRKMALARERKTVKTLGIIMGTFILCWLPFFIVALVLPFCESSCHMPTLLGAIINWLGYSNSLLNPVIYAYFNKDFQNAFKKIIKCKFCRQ
Protocol: 5-HT1r Receptor: The cDNA corresponding to the 5-HT1A receptor open reading frames and variable non-coding 5′- and 3′-regions, was cloned into the eukaryotic expression vector pCEXV-3. These constructs were transfected transiently into COS-7 cells by the DEAE-dextran method (Cullen, 1987), and harvested after 72 hours. Radioligand binding assays were performed as described above for the 5-HT2A receptor, except that ^3H-8-OH-DPAT was used as the radioligand and nonspecific binding was determined by the addition of 10 μM mianserin.
as §1

SMILES | overall profile in the Social Interaction Test (conclusion in words) [1] | Ki [2] [µM] | Ki [3] [µM] | ataxia or sedation accompanying decreased locomotor activity ([1]; 100 mg/kg i.p.) | social interaction of familiar cage mates ([1]; familiar cage mates, another study (not reported)) | stereotypes or aggressive behaviors ([1]; i.p., Social Interaction Test)
Cc1ccc(Nc2cc(N3CCCCC3)nc(N3CCN(c4ncccc4C(F)(F)F)CC3)n2)cc1 [Example 34] | produces an anxiolytic-like action in the social interaction test | > 50 | > 50 | – | – | –
O=C1C(=Nc2cccc(C(F)(F)F)c2)c2ccccc2N1c1ccccc1 [Example 92, 1-PHENYL-3-[[3-(TRIFLUOROMETHYL)PHENYL]IMINO]-1,3-DIHYDRO-2H-INDOL-2-ONE] | has the profile of an anxiolytic-like drug in the Social Interaction Test | > 50 | > 50 | did not appear to be accompanied by ataxia or sedation | no significant increase in interaction | did not elicit stereotypes or produce aggressive behaviors
